pEC50: −log10 of the molar value.
How the values were obtained:
[1] = biological target: T1, G-protein coupled bile acid receptor 1 (Homo sapiens, UniProt Q8TDU6); assay: Agonist activity at TGR5 expressed in NCI-H716 cells assessed as cAMP level after 60 mins by FRET analysis; assay type: functional, cell-based
T1 sequence (Q8TDU6 whole entry): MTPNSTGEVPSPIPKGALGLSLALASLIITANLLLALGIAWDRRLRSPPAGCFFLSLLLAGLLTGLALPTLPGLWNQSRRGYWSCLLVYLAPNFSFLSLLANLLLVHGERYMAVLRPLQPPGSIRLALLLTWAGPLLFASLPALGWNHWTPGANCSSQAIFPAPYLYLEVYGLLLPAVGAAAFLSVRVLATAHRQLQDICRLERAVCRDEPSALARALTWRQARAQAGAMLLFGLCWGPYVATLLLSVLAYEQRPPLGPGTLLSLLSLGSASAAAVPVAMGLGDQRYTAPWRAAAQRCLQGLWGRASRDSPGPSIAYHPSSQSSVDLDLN

Bile acid receptor = biological target: T2, Bile acid receptor (Homo sapiens, UniProt Q96RI1); assay: Agonist activity at GST-tagged FXR-LBD using biotinylated-SRC-1 peptide as substrate preincubated with compound for 30 mins measured after 4 hrs; assay type: functional
T2 sequence (Q96RI1 whole entry): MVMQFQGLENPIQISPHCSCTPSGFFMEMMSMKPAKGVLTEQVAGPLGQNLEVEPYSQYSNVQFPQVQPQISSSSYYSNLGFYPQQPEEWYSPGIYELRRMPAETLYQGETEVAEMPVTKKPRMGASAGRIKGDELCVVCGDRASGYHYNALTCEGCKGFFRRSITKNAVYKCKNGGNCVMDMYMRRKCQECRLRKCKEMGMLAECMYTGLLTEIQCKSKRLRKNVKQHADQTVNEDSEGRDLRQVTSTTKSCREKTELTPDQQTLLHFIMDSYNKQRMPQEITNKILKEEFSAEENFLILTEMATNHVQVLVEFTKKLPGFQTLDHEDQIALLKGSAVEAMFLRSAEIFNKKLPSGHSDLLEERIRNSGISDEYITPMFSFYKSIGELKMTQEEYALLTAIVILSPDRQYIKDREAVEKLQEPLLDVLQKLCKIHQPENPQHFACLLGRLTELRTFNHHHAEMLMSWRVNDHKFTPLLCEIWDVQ

[2] = Critical micelle concentration of the compound in 0.15 M NaCl water solution; assay type: physicochemical; details: buffer
[3] = 1-Octanol/water partition coefficient, log P of the compound by conventional shake-flask method; assay type: physicochemical
[4] = Aqueous solubility of the compound in 0.1 M HCl water at […] by HPLC-ES-MS/MS; assay type: physicochemical
Albumin = Albumin (Homo sapiens, UniProt P02768); assay: Binding affinity to albumin by equilibrium dialysis; assay type: ADME; parameters: concentration or dose not given beside the values; details: isolated protein
Sequence of Albumin (P02768 whole entry): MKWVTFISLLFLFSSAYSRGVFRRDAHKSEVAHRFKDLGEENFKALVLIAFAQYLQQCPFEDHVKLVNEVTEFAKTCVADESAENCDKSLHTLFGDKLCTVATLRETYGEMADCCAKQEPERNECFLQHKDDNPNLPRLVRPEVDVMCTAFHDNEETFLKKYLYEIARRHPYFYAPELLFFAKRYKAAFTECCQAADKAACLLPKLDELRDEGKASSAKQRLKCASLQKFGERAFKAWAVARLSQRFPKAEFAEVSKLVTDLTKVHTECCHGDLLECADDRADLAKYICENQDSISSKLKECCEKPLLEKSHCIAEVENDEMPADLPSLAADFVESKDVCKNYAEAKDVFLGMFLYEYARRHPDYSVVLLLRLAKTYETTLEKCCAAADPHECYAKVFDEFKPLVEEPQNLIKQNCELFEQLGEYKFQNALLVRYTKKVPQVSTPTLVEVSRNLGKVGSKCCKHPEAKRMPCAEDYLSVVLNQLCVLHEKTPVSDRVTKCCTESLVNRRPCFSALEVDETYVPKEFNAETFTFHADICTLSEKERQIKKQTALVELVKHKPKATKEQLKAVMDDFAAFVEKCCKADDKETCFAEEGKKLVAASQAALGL

Liver = assay: Drug metabolism in mouse liver assessed as taurine conjugate formation; assay type: ADME, tissue-based
[5] = 1-octanol/water, read-out: logP

| Structure (SMILES) | pEC50 [1] | pEC50 (Bile acid receptor) | CMC [2] | logP [3, 5] | solubility [4] | Activity (Albumin) | Drug metabolism (Liver) | logP ([3]; octanol/water) |
| --- | --- | --- | --- | --- | --- | --- | --- | --- |
| C[C@H](CCC(=O)O)[C@H]1[C@@H](O)C[C@H]2[C@@H]3[C@H](O)C[C@@H]4C[C@H](O)CC[C@]4(C)[C@H]3CC[C@]12C | 4.60 | 4.26 |  |  |  |  |  |  |
| CC[C@H]1[C@@H](O)[C@@H]2[C@H](CC[C@]3(C)[C@@H]([C@H](C)CCC(=O)O)[C@H](O)C[C@@H]23)[C@@]2(C)CC[C@@H](O)C[C@@H]12 | 4.06 | 4.66 |  |  |  |  |  |  |
| CC[C@H]1[C@@H](O)[C@@H]2[C@H](CC[C@]3(C)[C@@H]([C@H](C)CCC(=O)[O-])[C@@H](O)C[C@@H]23)[C@@]2(C)CC[C@@H](O)C[C@@H]12.[Na+] | 6.19 | 4.94 | 5.9 mM | 1.6 | 120 µM | 83% | Active |  |
| CC[C@H]1[C@@H](O)[C@@H]2[C@H](C[C@H](O)[C@]3(C)[C@@H]([C@H](C)C[C@H](C)C(=O)O)CC[C@@H]23)[C@@]2(C)CC[C@@H](O)C[C@@H]12 |  |  | 2 mM | 1.4 |  | 62% |  |  |
| C[C@H](CCC(=O)[O-])[C@H]1[C@H](O)C[C@H]2[C@@H]3[C@H](O)C[C@@H]4C[C@H](O)CC[C@]4(C)[C@H]3CC[C@]12C.[Na+] [AVICHOLIC ACID SODIUM SALT] | 3.80 | < 4.00 | 10 mM | 1.1 | 188 µM | 58% |  |  |
| C[C@H](CCC(=O)O)[C@H]1CC[C@H]2[C@@H]3[C@H](O)C[C@@H]4C[C@H](O)CC[C@]4(C)[C@H]3CC[C@]12C [CHENODIOL] |  |  | 3 mM |  |  | 93% |  | 2.2 |
| C[C@H](CCC(=O)O)[C@H]1CC[C@H]2[C@@H]3[C@H](O)C[C@@H]4C[C@H](O)CC[C@]4(C)[C@H]3C[C@H](O)[C@]12C [CHOLIC ACID] |  |  | 9.2 mM |  |  | 50% |  |  |

— ChEMBL document CHEMBL2062395, “Avicholic Acid: A Lead Compound from Birds on the Route to Potent TGR5 Modulators” (ACS Med Chem Lett, 2012)
